Assay results from publication PMC6164518 (Marine Drugs, 2018).

Key:
in vitro = conditions: human
Description: Thus, to verify the hepatotoxicity of 1 and 12j, a 3-(4,5-dimethylthiazol-2-yl)-2,5-diphenyltetrazolium bromide (MTT) assay on the human hepatoma cell line (HepG2) was carried out.
The cytotoxicity of selected compounds was evaluated on HepG2 cells. Cells were inoculated into 96-well plates. After incubation for 24 h, the cells were treated with different concentrations of tested compounds for 24 h, and then were incubated with 10 μL of 3-(4,5-dimethylthiazol-2-yl)-2,5-diphenyltetrazolium bromide (MTT) at 37 °C for 2 h. The formazan dye product was measured by the absorbance at 490 nm on a Tecan Spark multimode microplate reader.

Electric eel AChE = biological target: T1, Electric eel AChE (Electrophorus electricus, UniProt O42275); test: biochemical; conditions: AChE from electric eel; mean ± SD from three separate experiments; read-out: IC50 EeAChE
T1 construct: purchased Sigma-Aldrich (Steinheim, Germany)
T1 sequence (O42275 24-633): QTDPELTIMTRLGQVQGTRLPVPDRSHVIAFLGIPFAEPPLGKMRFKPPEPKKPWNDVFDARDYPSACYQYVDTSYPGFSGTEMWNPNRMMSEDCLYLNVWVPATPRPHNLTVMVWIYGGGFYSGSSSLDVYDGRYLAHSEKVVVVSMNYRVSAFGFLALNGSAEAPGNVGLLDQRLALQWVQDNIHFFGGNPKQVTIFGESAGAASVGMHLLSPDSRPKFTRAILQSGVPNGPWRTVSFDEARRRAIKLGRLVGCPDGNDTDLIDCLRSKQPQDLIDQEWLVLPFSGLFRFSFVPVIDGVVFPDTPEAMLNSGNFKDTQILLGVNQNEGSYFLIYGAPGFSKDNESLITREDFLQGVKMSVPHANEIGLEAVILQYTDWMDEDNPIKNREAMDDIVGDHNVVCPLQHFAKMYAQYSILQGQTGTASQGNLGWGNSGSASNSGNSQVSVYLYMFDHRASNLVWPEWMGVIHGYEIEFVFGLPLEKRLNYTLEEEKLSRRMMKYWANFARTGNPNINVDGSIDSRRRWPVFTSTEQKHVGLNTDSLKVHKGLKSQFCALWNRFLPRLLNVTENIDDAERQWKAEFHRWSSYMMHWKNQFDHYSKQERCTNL
Description: (§1) The AChE and BChE inhibitory activities of compounds were determined by using a slightly modified Ellman’s method. Electric eel AChE, equine serum BChE, 5,5′-dithiobis(2-nitrobenzoic acid) (DTNB), phosphate buffer solution (PBS, pH 8.0), acetylthiocholine (ATC) iodide, and butyrylthiocholine (BUC) iodide were purchased from Sigma-Aldrich (Steinheim, Germany). […] Enzyme solutions were prepared at 2.0 U/mL in 2-mL aliquots. The assay medium consisted of 10 μL of enzyme, 40 μL of PBS, 20 μL of 0.01 M DTNB, and 10 μL of tested compound. Assayed solutions of tested compounds were pre-incubated with corresponding ChE for 5 min. The reaction was initiated by the addition of 20 μL of 0.01 M substrate (ATC or BUC). The activity was determined by measuring the increase in absorbance at 410 nm at 37 °C in 2-min intervals using Tecan Spark multimode microplate reader (Mannedorf, Switzerland). The percentage of inhibition (I) was calculated from the measured data as follows: I = (Ac − Ai)/Ac × 100%, where Ai and Ac represent the change in the absorbance in the presence of an inhibitor and without an inhibitor, respectively.

equine serum BChE = biological target: T2, equine serum BChE (Equus caballus, UniProt P81908); test: biochemical; conditions: BChE from equine serum; mean ± SD from three separate experiments; read-out: IC50 eqBChE
T2 construct: purchased Sigma-Aldrich (Steinheim, Germany); host or cells: equine serum
T2 sequence (P81908 whole entry): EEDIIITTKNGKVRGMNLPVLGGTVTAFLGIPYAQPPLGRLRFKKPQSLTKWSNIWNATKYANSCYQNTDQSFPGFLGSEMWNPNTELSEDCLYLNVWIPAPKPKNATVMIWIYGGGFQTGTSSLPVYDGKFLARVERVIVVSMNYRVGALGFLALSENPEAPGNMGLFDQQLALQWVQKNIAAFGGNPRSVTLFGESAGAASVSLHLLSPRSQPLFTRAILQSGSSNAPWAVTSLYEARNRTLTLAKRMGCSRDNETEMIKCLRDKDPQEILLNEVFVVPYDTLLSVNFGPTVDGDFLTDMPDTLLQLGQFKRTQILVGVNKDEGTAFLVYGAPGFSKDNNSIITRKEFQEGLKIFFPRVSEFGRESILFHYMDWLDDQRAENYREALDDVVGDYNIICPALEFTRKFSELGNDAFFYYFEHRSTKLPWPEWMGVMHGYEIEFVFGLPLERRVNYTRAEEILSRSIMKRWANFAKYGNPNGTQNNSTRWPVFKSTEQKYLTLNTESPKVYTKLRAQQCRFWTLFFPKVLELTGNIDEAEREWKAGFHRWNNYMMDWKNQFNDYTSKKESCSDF
Description: as §1

AChE = biological target: T3, AChE (Electrophorus electricus, UniProt O42275); test: Kinetic study of AChE inhibition (Lineweaver-Burk, Ellman's method); type: biochemical
T3 construct: purchased Sigma-Aldrich (Steinheim, Germany)
T3 sequence (O42275 24-633): as the sequence (O42275 24-633) above
Description: (§2) Herein, compound 12j was selected as a representative prototype for kinetic assay to obtain information on the mode of action and binding site of this series of analogues. […].
(§3) The equilibrium constant for binding with the free enzyme (Ki) was obtained from the slope against inhibitor concentration. […].
(§4) Kinetic studies of inhibition on AChE and BChE were performed by using Ellman’s method as described above. […]
(§5) (B) Secondary plot of slopes versus 12j concentrations.

BChE = biological target: T4, BChE (Equus caballus, UniProt P81908); test: Kinetic study of BChE inhibition (Lineweaver-Burk, Ellman's method); type: biochemical
T4 construct: purchased Sigma-Aldrich (Steinheim, Germany); host or cells: equine serum
T4 sequence (P81908 whole entry): as the sequence (P81908 whole entry) above
Description: as §2, §3, §4, §5

Aβ1–42 = biological target: T5, Aβ1–42 (Homo sapiens, UniProt P05067); test: Inhibition of self-induced Aβ1–42 aggregation (ThT fluorescence); type: biochemical; conditions: Aβ1–42 2.5 µM, compound 10 µM, mean ± SD of three experiments
T5 construct: pre-treated Aβ1–42 (GL Biochem Ltd., Shanghai, China) was dissolved in DMSO; purchased GL Biochem Ltd., Shanghai, China
T5 sequence (P05067 672-713 limits assumed): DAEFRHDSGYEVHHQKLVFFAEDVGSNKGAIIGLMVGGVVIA
Description: In order to investigate the inhibition of compounds on Aβ1–42 self-aggregation, a ThT-based fluorometric assay was performed. 1,1,1,3,3,3-hexafluoro-2-propanol (HFIP) pre-treated Aβ1–42 (GL Biochem Ltd., Shanghai, China) was dissolved in DMSO to make a 200 µM stock solution. The stock solution was centrifuged at the speed of 13,500 rpm for 10 min. The above supernatant was used for experiments. The tested compounds were dissolved in DMSO at concentrations of 0.8 mM. A screening assay for the tested compounds to inhibit A aggregation was performed by measuring ThT fluorescence emission. Compounds (2 µL) and 2 µL of 200 µM Aβ1–42 were added into 76 µL of phosphate-buffered saline (PBS at pH 7.4) in a 96-well plate. After incubation for 24 h at room temperature, 80 µL of 5 µM of ThT solution (in 50 mM of glycine-NaOH at pH 8.5) was added to the reaction solution. Fluorescence emission was measured at 490 nm with an excitation wavelength of 450 nm on a Tecan Spark multimode microplate reader. […] The fluorescence intensities were compared, and the % inhibition was calculated by the following equation: 100 − [(Fi − Fb)/(Fo − Fb) × 100], where Fi, Fo and Fb are the fluorescence intensities obtained for Aβ aggregation in the presence of inhibitors Aβ1–42 and ThT; in the presence of Aβ1–42 and THT but no inhibitors; and the blanks containing ThT only.

Aβ1–42 and AChE = biological target: T6, Aβ1–42 and AChE (Electrophorus electricus, UniProt O42275); test: Inhibition of AChE-induced Aβ1–42 aggregation (ThT fluorescence); type: biochemical; conditions: Aβ1–42 2.5 µM, AChE 0.2 U/mL, compound 8 µM; mean ± SD of three experiments
T6 construct: HFIP pre-treated Aβ1–42 (GL Biochem Ltd., shanghai, China) was dissolved in DMSO; purchased GL Biochem Ltd. (Aβ1–42)
T6 sequence (O42275 24-633): as the sequence (O42275 24-633) above
Description: The stock solution was centrifuged at the speed of 13,500 rpm for 10 min. The above supernatant was used for experiments. […] Fluorescence emission was measured at 490 nm with an excitation wavelength of 450 nm on a Tecan Spark multimode microplate reader.

[1] = estimated from secondary plot of slopes versus inhibitor concentration

With `Nc1c2c(nc3ccccc13)CCCC2` [Tacrine, reference compound] as the molecule, how does the IC50 at 24 h (in vitro) read?
The IC50 at 24 h was 38900 ± 530 nM.

For `COc1c(Br)cc(CC(=O)NCCCCCCNc2c3c(nc4ccccc24)CCCC3)cc1Br` [Compound 10e, 2-(3,5-Dibromo-4-methoxyphenyl)-N-(6-((1,2,3,4-tetrahydroacridin-9-yl)amino)hexyl)acetamide], which IC50 (Electric eel AChE) is on record?
The IC50 was 686 ± 45 nM.

And the IC50 (equine serum BChE)?
The IC50 was 54 ± 6 nM.

With `O=C(Cc1cc(Cl)ccc1Br)NCCCCCCCNc1c2c(nc3ccccc13)CCCC2` [Compound 12k, 2-(2-Bromo-5-chlorophenyl)-N-(7-((1,2,3,4-tetrahydroacridin-9-yl)amino)heptyl)acetamide] as the molecule, how does the IC50 (Electric eel AChE) read?
Its IC50 is 383 ± 54 nM.

And the IC50 (equine serum BChE)?
The IC50 was 104 ± 1 nM.

With `O=C(Cc1ccc(F)c(Br)c1)NCCCCCCCNc1c2c(nc3ccccc13)CCCC2` [Compound 12i, 2-(3-Bromo-4-fluorophenyl)-N-(7-((1,2,3,4-tetrahydroacridin-9-yl)amino)heptyl)acetamide] as the molecule, how does the IC50 (Electric eel AChE) read?
Its IC50 is 748 ± 17 nM.

And the IC50 (equine serum BChE)?
The IC50 was 49 ± 4 nM.

Which IC50 (Electric eel AChE) does the source give for `O=C(Cc1cc(Br)cc(Br)c1)NCCCCCCCNc1c2c(nc3ccccc13)CCCC2` [Compound 12h, 2-(3,5-Dibromophenyl)-N-(7-((1,2,3,4-tetrahydroacridin-9-yl)amino)heptyl)acetamide] here?
Its IC50 is 729 ± 21 nM.

What about the IC50 (equine serum BChE) of the same molecule?
The IC50 was 204 ± 11 nM.

Which results are given for `O=C(Cc1cc(Br)ccc1Br)NCCCCCCCNc1c2c(nc3ccccc13)CCCC2` [Compound 12g, 2-(2,5-Dibromophenyl)-N-(7-((1,2,3,4-tetrahydroacridin-9-yl)amino)heptyl)acetamide]?
IC50 (Electric eel AChE): 696 ± 52 nM; IC50 (equine serum BChE): 62 ± 6 nM

Which results are given for `O=C(Cc1ccccc1Br)NCCCCCCCNc1c2c(nc3ccccc13)CCCC2` [Compound 12d, 2-(2-Bromophenyl)-N-(7-((1,2,3,4-tetrahydroacridin-9-yl)amino)heptyl)acetamide]?
IC50 (Electric eel AChE): 304 ± 4 nM; IC50 (equine serum BChE): 91 ± 17 nM

Which IC50 (Electric eel AChE) does the source give for `COc1c(Br)cc(CC(=O)NCCCCCCCNc2c3c(nc4ccccc24)CCCC3)cc1Br` [Compound 10f, 2-(3,5-Dibromo-4-methoxyphenyl)-N-(7-((1,2,3,4-tetrahydroacridin-9-yl)amino)heptyl)acetamide] here?
The IC50 was 314 ± 10 nM.

And the IC50 (equine serum BChE)?
The IC50 was 53 ± 7 nM.

With `O=C(Cc1cc(Br)ccc1F)NCCCCCCCNc1c2c(nc3ccccc13)CCCC2` [Compound 12j, 2-(5-Bromo-2-fluorophenyl)-N-(7-((1,2,3,4-tetrahydroacridin-9-yl)amino)heptyl)acetamide] as the molecule, how does the IC50 (Electric eel AChE) read?
Its IC50 is 182 ± 6 nM.

What about the IC50 (equine serum BChE) of the same molecule?
Its IC50 is 64 ± 6 nM.

And the “Type of AChE inhibition” value (AChE; Lineweaver-Burk plots)?
The value was “linear mixed-type”.

And the Ki (AChE; [1])?
The Ki was 97.5 nM.

And the “Type of BChE inhibition” value (BChE; Lineweaver-Burk plots)?
Its value is “linear mixed-type”.

And the Ki (BChE; [1])?
Its Ki is 9.91 nM.

And the “Inhibition of Aβ Aggregation (%) Self-Induced” value (“Inhibition … (%) Self-Induced” below) (Aβ1–42)?
Its value is 32.37 ± 0.62%.

And the “Inhibition of Aβ Aggregation (%) AChE-Induced” value (Aβ1–42 and AChE)?
Its value is 47.73 ± 4.35%.

And the IC50 at 24 h (in vitro)?
The IC50 at 24 h was over 80000 nM.

Which results are given for `COc1c(Br)cc(CC(=O)NCCCCCNc2c3c(nc4ccccc24)CCCC3)cc1Br` [Compound 10d, 2-(3,5-Dibromo-4-methoxyphenyl)-N-(5-((1,2,3,4-tetrahydroacridin-9-yl)amino)pentyl)acetamide]?
IC50 (Electric eel AChE): 764 ± 16 nM; IC50 (equine serum BChE): 100 ± 14 nM

Which IC50 (Electric eel AChE) does the source give for `O=C(Cc1ccccc1)NCCCCCCCNc1c2c(nc3ccccc13)CCCC2` [Compound 12l, 2-Phenyl-N-(7-((1,2,3,4-tetrahydroacridin-9-yl)amino)heptyl)acetamide] here?
Its IC50 is 760 ± 92 nM.

And the IC50 (equine serum BChE)?
The IC50 was 680 ± 54 nM.

With `COc1c(Br)cc(CC(=O)NCCCCCCCCCCNc2c3c(nc4ccccc24)CCCC3)cc1Br` [Compound 10h, 2-(3,5-Dibromo-4-methoxyphenyl)-N-(10-((1,2,3,4-tetrahydroacridin-9-yl)amino)decyl)acetamide] as the molecule, how does the IC50 (Electric eel AChE) read?
The IC50 was 638 ± 26 nM.

What about the IC50 (equine serum BChE) of the same molecule?
Its IC50 is 516 ± 37 nM.

With `O=C(Cc1cccc(Br)c1)NCCCCCCCNc1c2c(nc3ccccc13)CCCC2` [Compound 12e, 2-(3-Bromophenyl)-N-(7-((1,2,3,4-tetrahydroacridin-9-yl)amino)heptyl)acetamide] as the molecule, how does the IC50 (Electric eel AChE) read?
Its IC50 is 724 ± 3 nM.

And the IC50 (equine serum BChE)?
The IC50 was 149 ± 21 nM.

For `COc1ccc2c3c1O[C@H]1C[C@@H](O)C=C[C@@]31CCN(C)C2` [Galantamine, reference compound], which “Inhibition … (%) Self-Induced” value (Aβ1–42) is on record?
The value was 1.25 ± 0.46%.

And the “Inhibition … (%) Self-Induced” value (Aβ1–42; listed as galantamine)?
The value was “no significant inhibition”.

Which results are given for `COc1c(Br)cc(CC(=O)NCCCCCCCCNc2c3c(nc4ccccc24)CCCC3)cc1Br` [Compound 10g, 2-(3,5-Dibromo-4-methoxyphenyl)-N-(8-((1,2,3,4-tetrahydroacridin-9-yl)amino)octyl)acetamide]?
IC50 (Electric eel AChE): 427 ± 16 nM; IC50 (equine serum BChE): 325 ± 4 nM

With `O=C(Cc1ccc(Br)cc1)NCCCCCCCNc1c2c(nc3ccccc13)CCCC2` [Compound 12f, 2-(4-Bromophenyl)-N-(7-((1,2,3,4-tetrahydroacridin-9-yl)amino)heptyl)acetamide] as the molecule, how does the IC50 (Electric eel AChE) read?
The IC50 was 597 ± 28 nM.

And the IC50 (equine serum BChE)?
Its IC50 is 214 ± 4 nM.

With `COc1ccc(CC(=O)NCCCCCCCNc2c3c(nc4ccccc24)CCCC3)c(Br)c1` [Compound 12a, 2-(2-Bromo-4-methoxyphenyl)-N-(7-((1,2,3,4-tetrahydroacridin-9-yl)amino)heptyl)acetamide] as the molecule, how does the IC50 (Electric eel AChE) read?
The IC50 was 324 ± 33 nM.

And the IC50 (equine serum BChE)?
Its IC50 is 140 ± 4 nM.

What does the source list for `COc1c(Br)cc(CC(=O)NCCCNc2c3c(nc4ccccc24)CCCC3)cc1Br` [Compound 10b, 2-(3,5-Dibromo-4-methoxyphenyl)-N-(3-((1,2,3,4-tetrahydroacridin-9-yl)amino)propyl)acetamide]?
IC50 (Electric eel AChE): 771 ± 27 nM; IC50 (equine serum BChE): 233 ± 13 nM

Which IC50 (Electric eel AChE) does the source give for `COc1ccc(CC(=O)NCCCCCCCNc2c3c(nc4ccccc24)CCCC3)cc1` [Compound 12b, 2-(4-Methoxyphenyl)-N-(7-((1,2,3,4-tetrahydroacridin-9-yl)amino)heptyl)acetamide] here?
The IC50 was 750 ± 54 nM.

What about the IC50 (equine serum BChE) of the same molecule?
Its IC50 is 694 ± 3 nM.

Which results are given for `COc1ccc(CC(=O)NCCCCCCCNc2c3c(nc4ccccc24)CCCC3)cc1Br` [Compound 12c, 2-(3-Bromo-4-methoxyphenyl)-N-(7-((1,2,3,4-tetrahydroacridin-9-yl)amino)heptyl)acetamide]?
IC50 (Electric eel AChE): 607 ± 45 nM; IC50 (equine serum BChE): 152 ± 6 nM

For `COc1c(Br)cc(CC(=O)NCCCCNc2c3c(nc4ccccc24)CCCC3)cc1Br` [Compound 10c, 2-(3,5-Dibromo-4-methoxyphenyl)-N-(4-((1,2,3,4-tetrahydroacridin-9-yl)amino)butyl)acetamide], which IC50 (Electric eel AChE) is on record?
Its IC50 is 1050 ± 161 nM.

What about the IC50 (equine serum BChE) of the same molecule?
Its IC50 is 195 ± 11 nM.

What does the source list for `COc1c(Br)cc(CC(=O)NCCNc2c3c(nc4ccccc24)CCCC3)cc1Br` [Compound 10a, 2-(3,5-Dibromo-4-methoxyphenyl)-N-(2-((1,2,3,4-tetrahydroacridin-9-yl)amino)ethyl)acetamide]?
IC50 (Electric eel AChE): 880 ± 74 nM; IC50 (equine serum BChE): 230 ± 10 nM
